From US9233979B2, “Compounds that are ERK inhibitors” (Merck Sharp & Dohme Corp., priority 2012, dated 2016)
Read-outs that look alike come from different tables or passages of the source.

Molecular target: phosphorylated active hERK2 enzyme (Homo sapiens (Human), UniProt P28482)
Assay: Active Human ERK2 (hERK2) Activity Assay (IMAP-FP)
Format: biochemical
Settings: 10 point titration, read-out: AERK2 IC50
In short: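 IMAP detection beads in buffer with 24 mM NaCl stopped the reaction, and fluorescence polarization was read after 60 min binding.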

[1] = Table 5, 0.5 nM hERK2, 30 μM ATP
[2] = Table 6, 0.5 nM hERK2, 30 μM ATP

Sequence of phosphorylated active hERK2 enzyme (P28482 whole entry): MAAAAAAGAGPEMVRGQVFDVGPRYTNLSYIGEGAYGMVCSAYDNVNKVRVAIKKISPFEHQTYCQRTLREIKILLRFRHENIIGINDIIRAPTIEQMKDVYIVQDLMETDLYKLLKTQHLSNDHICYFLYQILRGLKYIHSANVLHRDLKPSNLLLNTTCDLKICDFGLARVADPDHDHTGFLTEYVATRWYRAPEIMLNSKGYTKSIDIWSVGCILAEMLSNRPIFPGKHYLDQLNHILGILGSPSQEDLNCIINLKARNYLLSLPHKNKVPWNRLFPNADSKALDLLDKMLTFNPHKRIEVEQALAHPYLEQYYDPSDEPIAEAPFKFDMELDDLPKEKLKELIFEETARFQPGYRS

SMILES | IC50 [1] | IC50 [2]
C[C@@H](NC(=O)Nc1cc2[nH]nc(NS(=O)(=O)C3CCC3)c2cn1)c1ccccc1 [Example 53, N-[6-({[(1R)-1-phenylethyl]carbamoyl}amino)-1H-pyrazolo[4,3-c]pyridin-3-yl]cyclobutanesulfonamide] | 424 nM | 
CCNc1n[nH]c2cc(NC(=O)NC(C)c3ccc(F)nc3)ncc12 (stereo not shown) [Example 282, 1-[3-(ethylamino)-1H-pyrazolo[4,3-c]pyridin-6-yl]-3-[1-(6-fluoropyridin-3-yl)ethyl]urea] |  | 34.2 nM
C[C@@H](NC(=O)Nc1cc2[nH]nc(N3CC(C#N)C3)c2cn1)c1ccccc1 [Example 93, 1-[3-(3-cyanoazetidin-1-yl)-1H-pyrazolo[4,3-c]-pyridin-6-yl]-3-[(1R)-1-phenylethyl]urea] |  | 9.9 nM
CN1C[C@@H](NC(=O)Nc2cc3[nH]nc(N4CCOCC4)c3cn2)[C@H](c2ccccc2)C1 [Example 42, 1-[(3S,4R)-1-methyl-4-phenylpyrrolidin-3-yl]-3-(3-morpholin-4-yl-1H-pyrazolo[4,3-c]pyridin-6-yl)urea] | 0.2 nM | 
O=C(Nc1cc2[nH]nc(N3CCOCC3)c2cn1)N[C@H](CO)c1ccccc1 [Example 437, 1-[(1S)-2-hydroxy-1-phenylethyl]-3-(3-morpholin-4-yl-1H-pyrazolo[4,3-c]pyridin-6-yl)urea] |  | 0.4 nM
C[C@@H](NC(=O)Nc1cc2[nH]nc(N(C)C)c2cn1)c1ccc(F)cc1 [Example 15, 1-[3-(dimethylamino)-1H-pyrazolo[4,3-c]pyridin-6-yl]-3-[(1R)-1-(4-fluorophenyl)ethyl]urea] | 17.3 nM | 
Cc1cc(Nc2n[nH]c3cc(NC(=O)N[C@H](C)c4ccccc4)ncc23)ccn1 [Example 62, 1-{3-[(2-methylpyridin-4-yl)amino]-1H-pyrazolo[4,3-c]pyridin-6-yl}-3-[(1R)-1-phenylethyl]urea] |  | 14.7 nM
CCNc1n[nH]c2cc(NC(=O)N[C@@H](c3ccccc3)C(C)(C)O)ncc12 [Example 420, 1-[3-(ethylamino)-1H-pyrazolo[4,3-c]pyridin-6-yl]-3-[(1S)-2-hydroxy-2-methyl-1-phenylpropyl]urea] |  | 2.1 nM
COCC1CN(c2n[nH]c3cc(NC(=O)N[C@H](COC)c4ccccc4)ncc23)C1 [Example 82, 1-{3-[3-(methoxy-methyl)azetidin-1-yl]-1H-pyrazolo[4,3-c]-pyridin-6-yl}-3-[(1S)-2-methoxy-1-phenylethyl]urea] |  | 3.7 nM
CCNc1n[nH]c2cc(NC(=O)NC(C(=O)N(CC)CC)c3ccc(F)cc3)ncc12 (stereo not shown) [Example 412, N,N-diethyl-2-({[3-(ethylamino)-1H-pyrazolo[4,3-c]-pyridin-6-yl]-carbamoyl}amino)-2-(4-fluoro-phenyl)acetamide] |  | 421 nM
CCNc1n[nH]c2c(C)c(NC(=O)N[C@H](C)c3ccccc3)ncc12 [Example 60, (R)-1-(3-(Ethylamino)-7-methyl-1H-pyrazolo[4,3-c]pyridin-6-yl)-3-(1-phenylethyl)urea] | 38.8 nM | 
CCNc1n[nH]c2cc(NC(=O)NC(C)c3ccc(F)cn3)ncc12 (stereo not shown) [Example 284] |  | 33 nM
COC1CC(CNc2n[nH]c3cc(NC(=O)N[C@H](C)c4ccccc4)ncc23)C1 (stereo partly drawn) [Example 170, 1-(3-{[(3-methoxy-cyclobutyl)methyl]amino}-1H-pyrazolo[4,3-c]-pyridin-6-yl)-3-[(1R)-1-phenylethyl]urea] |  | 2.7 nM
CCNc1n[nH]c2cc(NC(=O)NC(C)c3cc(C)ccn3)ncc12 (stereo not shown) [Example 281, 1-[3-(ethylamino)-1H-pyrazolo[4,3-c]pyridin-6-yl]-3-[1-(4-methyl-pyridin-2-yl)-ethyl]urea] |  | 98.3 nM
CCN1CCc2nc(NC(=O)N[C@H](C)c3ccccc3)cc3[nH]nc1c23 [Example 141, (R)-1-(3-ethyl-1,3,4,5-tetrahydropyrazolo[3,4,5-de][1,6]naphthyridin-7-yl)-3-(1-phenylethyl)urea] |  | 15.4 nM
CCNc1n[nH]c2cc(NC(=O)NC3CNc4ccccc4C3)ncc12 (stereo not shown) [Example 232, 1-[3-(ethylamino)-1H-pyrazolo[4,3-c]pyridin-6-yl]-3-(1,2,3,4-tetrahydro-quinolin-3-yl)urea] |  | 18.6 nM
